How the values were obtained:
[1] = PET imaging of [11C]rhodamine-123 in rats; type: in vivo, rat
[2] = cited from earlier work
P-gp = conditions: mouse, not told, iv; cited from earlier work
[3] = mouse; cited from earlier work

CN/C(=N/CCSCc1nc[nH]c1C)NC#N [cimetidine]
inhibition of OCT in kidney in vivo ([1]; 30 mg/kg i.v., 30 min before radiotracer, rats): effective inhibitor of OCT in vivo

CNC(=O)C(CCN1CCC(O)(c2ccc(Cl)cc2)CC1)(c1ccccc1)c1ccccc1 [dLop, desmethyl-loperamide]
logD [2]: 2.60 | pKa [2]: 7.2–7.3

COC(=O)c1ccccc1-c1c2ccc(=N)cc-2oc2cc(N)ccc12.Cl [rhodamine-123]
brain concentration, P-gp knockout (mdr1a(−/−)) versus wild-type mice (P-gp): about 4 fold | Plasma free fraction [3]: 0.23 ± 0.04 | peak radioactivity in liver (PET) ([1]; DCPQ-pretreated versus untreated rats): greater peak radioactivity in liver
